According to US4767776A, “N-1H-tetrazol-5-yl-2-naphthalene carboxamides and their use as antiallergy and antiinflammatory agents” (Warner-Lambert Company, priority 1987, dated 1988):
Like-named read-outs stand apart in the source and are kept apart here.

Tested on: human basophils
Experiment: Histamine release from human basophils (HHB)
Type: cell-based
Details: anti-IgE stimulus
Method: HISTAMINE RELEASE FROM HUMAN BASOPHILS
The blood samples are placed briefly on a rotary mixer. All glassware contacting the blood is siliconized. The blood is aliquoted into three plastic 50 ml centrifuge tubes and the volume is noted. Hespan (hydroxy ethyl starch), 0.5 ml per 1.0 ml of blood, is added. The tubes are inverted several times to mix and are left undisturbed at room temperature until a sharp separation is observed between the settled red cells and the leukocyte and platelet-rich plasma. This usually occurs within 35-45 minutes.
The plasma fraction is pipetted off and placed into two clean plastic 50 ml centrifuge tubes. […] The platelets remain in the plasma and are discarded. The pelleted leukocytes are shaken gently to disrupt the cell button and washed twice as described:
Wash 1. Five ml of HA buffer with 0.005M EDTA is added to the dispersed cells in each tube and gently vortexed. 25 ml of buffer is then added and gently vortexed. The samples are again centrifuged as described earlier. The supernatant is poured off, and the cell button in each tube is gently dispersed.
Wash 2. Five ml of HA buffer with EDTA is added to each tube to resuspend the cells. Leukocytes are then pooled into one tube and the volume is brought up to 40 ml with HA buffer with EDTA and gently vortexed. […] The supernatant fluid is discarded and the cell button is dispersed. Sixteen ml of HACM buffer is added to the washed cells and gently vortexed. A sample is prepared for Hematology, where a total white blood cell and platelet count is done using a Coulter Counter.
Aliquots (0.1 ml) of cells are added to assay tubes containing 0.4 ml of either 6% perchloric acid (for total histamine content), vehicle control (for spontaneous release), or drug. The tubes are incubated at room temperature for 8 minutes, and then placed in a 37° water bath for two more minutes. Buffer or challenge agents (at 37°) are added to the tube and they are incubated for an additional 45 minutes at 37°. The tubes are then spun at 2000 RPM (1200 g) for three minutes to pellet the cells and the supernatants are poured into assay cups.
If the compound is in solution, distilled water is used to bring it up to 100 ml total volume. If the drug is not in solution, 0.2 ml 1N NaOH (or HCl) is added, and then distilled water is added to yield 100 ml total solution. Five ml of the stock solution is diluted (1:2) with 5 ml of two times concentrated HACM (Hepes Albumin Calcium Magnesium) buffer to yield the stock working concentration of 150 μM. […] Further dilutions are made with HACM buffer for 33, 10, 3.3, 1.0 μM, etc.
Short ragweed and house dust extracts (Greer Laboratories, Inc.) are supplied as aqueous extracts in stock concentrations of 40,000 and 10,000 protein nitrogen units per milliliter (PNU/ml), respectively. Aqueous solutions of anti-IgE antisera (rabbit-raised antibody) are purchased from Dako via Accurate Chemicals. The tripeptide f-met-leu-phe (fmlp) from Vega Biochemicals is used. The aqueous solutions of ragweed, house dust, and anti-IgE are diluted 1:2 with two times concentrated HACM and then further diluted with HACM to yield final stock concentrations of […] for ragweed and house dust, and a 1:50 dilution for the anti-IgE antisera. […] The pH is adjusted to 7.4. Further dilutions for working solutions are made in HACM buffer. All stock and working solutions are stored at 4°. Working solutions comprise 1/6 of the final volume in the cell reaction, therefore, working solutions of challenge agents are made up six times the required final concentration (i.e., 600 μM f-met-leu-phe yields 100 μM final concentration in the cellular reaction).
Samples are run in triplicate, using either 1.5 ml polypropylene-capped reaction tubes, or 5.0 ml plastic uncapped tubes.

[1] = tested at 33 μM, read-out: % Inhibition of Histamine Release with Anti-IgE Stimulus

## COc1ccc2c(OC(C)C)c(C(=O)Nc3nnn[nH]3)ccc2c1 [Example 22, 6-Methoxy-1-(1-methylethoxy)-N-1H-tetrazol-5-yl-2-naphthalenecarboxamide]
[1]
  inhibition at 33 µM: 71%

## CC(C)Oc1c(C(=O)Nc2nnn[nH]2)ccc2ccccc12 [Example 23, 1-(1-Methylethoxy)-N-1H-tetrazol-5-yl-2-naphthalenecarboxamide]
[1]
  inhibition at 33 µM: 16%

## COc1ccc2ccc(C(=O)Nc3nn[nH]n3)c(OC)c2c1 [Example 24, 1,7-Dimethoxy-N-1H-tetrazol-5-yl-2-napthalenecarboxamide]
[1]
  inhibition at 33 µM: 57%

## COc1cccc2c(OC(C)C)c(C(=O)Nc3nnn[nH]3)ccc12 [Example 25, 5-Methoxy-1-(1-methylethoxy)-N-1H-tetrazol-5-yl-2-naphthalenecarboxamide]
[1]
  inhibition at 33 µM: 11%

## COc1ccc2ccc(C(=O)Nc3nnn[nH]3)c(OC(C)C)c2c1 [Example 26, 7-Methoxy-1-(1-methylethoxy)-N-1H-tetrazol-5-yl-2-naphthalenecarboxamide]
[1]
  inhibition at 33 µM: 91%

## CC(C)Oc1ccc2ccc(C(=O)Nc3nnn[nH]3)c(OC(C)C)c2c1 [Example 27, 1,7-bis(1-Methylethoxy)-N-1H-tetrazol-5-yl-2-naphthalenecarboxamide]
At highest dose tested, column head: tested at 33 μM, read-out: % Inhibition of Histamine Release with Anti-IgE Stimulus (at highest dose tested)
  inhibition at 33 µM: 0%
